These compounds were tested against T1, human CRF receptors (Homo sapiens, UniProt P34998) (assay: radioligand binding assay, displacement of [125I]tyrosine-ovine CRF from CRF receptor (stably transfected cells)). Settings: [125I]tyrosine-ovine CRF ~200 pM; cells stably transfected with human CRF receptors; 2 hours at 22° C.
T1 construct: expressed in transfected cells
T1 sequence (P34998 24-415): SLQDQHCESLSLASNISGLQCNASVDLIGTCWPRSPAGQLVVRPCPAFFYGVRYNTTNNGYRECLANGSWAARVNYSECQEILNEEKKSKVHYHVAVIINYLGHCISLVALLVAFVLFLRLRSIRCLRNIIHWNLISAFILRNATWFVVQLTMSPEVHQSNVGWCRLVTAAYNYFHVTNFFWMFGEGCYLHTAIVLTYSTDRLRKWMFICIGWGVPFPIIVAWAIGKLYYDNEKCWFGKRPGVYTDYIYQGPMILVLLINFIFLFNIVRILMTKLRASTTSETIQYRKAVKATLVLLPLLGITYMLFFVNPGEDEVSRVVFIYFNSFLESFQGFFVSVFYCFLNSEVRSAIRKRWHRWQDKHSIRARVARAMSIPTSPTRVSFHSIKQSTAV
From the text: The effectiveness of a compound as a CRF receptor antagonist may be determined by various assay methods. […] CRF receptor affinity may be determined by binding studies that measure the ability of a compound to inhibit the binding of a radiolabeled CRF (e.g. [^125 I]tyrosine CFR) to receptor (e.g., receptors prepared from rat cerebral cortex membranes). The radioligand binding assay described by DeSouza et al. (supra, 1987) provides an assay for determining a compound's affinity for the CRF receptor.
where L=radioligand and KD =affinity of radioligand for receptor (Cheng and Prusoff, Biochem. Pharmacol. 22:3099, 1973).
By utilizing various radiolabeled CRF ligands, the assay may be used to evaluate the binding activity of the compounds of the present invention with any CRF receptor subtype. Briefly, the binding assay involves the displacement of a radiolabeled CRF ligand from the CRF receptor.
More specifically, the binding assay was performed in 1.5 ml Eppendorf tubes using approximately 1×10^6 cells per tube stably transfected with human CRF receptors. Each tube received about 0.1 ml of assay buffer (e.g., Dulbecco's phosphate buffered saline, 10 mM magnesium chloride, 20 μM bacitracin) with or without unlabeled sauvagine, urotensin I or CRF (final concentration, […]) to determine nonspecific binding, 0.1 ml of [^125 I] tyrosine--ovine CRF (final concentration ~200 pM or approximately the KD as determined by Scatchard analysis) and 0.1 ml of a membrane suspension of cells containing the CRF receptor. The mixture was incubated for 2 hours at 22° C. followed by the separation of the bound and free radioligand by centrifugation. Following two washes of the pellets, the tubes were cut just above the pellet and monitored in a gamma counter for radioactivity at approximately 80% efficiency. All radioligand binding data was analyzed using a non-linear least-square curve-fitting program. Binding activity corresponds to the concentration (nM) of the compound necessary to displace 50% of the radiolabeled ligand from the receptor.

Row | Ki | Structure (SMILES)
1 | ≤ 250 nM | CCCN(CC1CC1)c1nc(C)nc(C(=O)c2c(C)cc(C)cc2C)c1C [Compound 5]
2 | ≤ 250 nM | CCCN(CCC)c1nc(C)nc(C(=O)c2c(C)cc(C)cc2C)c1C [Compound 13]

Continued, compound first:

Row | Structure (SMILES) | Ki
3 | CCCN(CC1CC1)c1nc(C)nc(C(=O)c2c(OC)cc(OC)cc2OC)c1C [Compound 2] | ≤ 250 nM
4 | CCCN(CC1CC1)c1nc(C)nc(C(=O)c2c(CC)cc(CC)cc2CC)c1C [Compound 8] | ≤ 250 nM
5 | C=CCN(CC=C)c1nc(C)nc(C(=O)c2c(C)cc(C)cc2C)c1C [Compound 14] | ≤ 250 nM
6 | CCCN(CC1CC1)c1nc(C)nc(Cc2c(OC)cc(OC)cc2OC)c1C [Compound 20, 2,6-dimethyl-4-(N-propyl-N-cyclopropylmethylamino)-6-(2',4',6'-trimethyloxyphenylmeth-1'-yl)-pyrimidine] | ≤ 250 nM

Same assay, conditions: result in words, same radioligand binding assay

Row | score in CRF receptor binding test (ranking among compounds) | Structure (SMILES)
7 | best score | CCCN(CC1CC1)c1nc(C)nc(C(=O)c2c(CC)cc(CC)cc2CC)c1C [Compound 8]
